Reference: ChEMBL document CHEMBL5625247, “Tetrahydro-β-carboline derivatives as potent histone deacetylase 6 inhibitors with broad-spectrum antiproliferative activity” (Eur J Med Chem, 2023)

How the values were obtained:
[1] = system: HCT-116; test: Antiproliferative activity against human HCT-116 cells assessed as cell growth inhibition incubated for 72 hrs by alamar blue dye based assay; format: functional
[2] = system: RXF 393; test: Antiproliferative activity against human RXF 393 cells assessed as cell growth inhibition incubated for 72 hrs by alamar blue dye based assay; format: functional
[3] = system: SF-539; test: Antiproliferative activity against human SF-539 cells assessed as cell growth inhibition incubated for 72 hrs by alamar blue dye based assay; format: functional
[4] = system: CCRF-CEM; test: Antiproliferative activity against human CCRF-CEM cells assessed as cell growth inhibition incubated for 72 hrs by alamar blue dye based assay; format: functional
[5] = system: 786-0; test: Antiproliferative activity against human 786-0 cells assessed as cell growth inhibition incubated for 72 hrs by alamar blue dye based assay; format: functional
[6] = system: NCI-H23; test: Antiproliferative activity against human NCI-H23 cells assessed as cell growth inhibition incubated for 72 hrs by alamar blue dye based assay; format: functional
[7] = system: Hs-578T; test: Antiproliferative activity against human Hs-578T cells assessed as cell growth inhibition incubated for 72 hrs by alamar blue dye based assay; format: functional
[8] = system: OVCAR-5; test: Antiproliferative activity against human OVCAR-5 cells assessed as cell growth inhibition incubated for 72 hrs by alamar blue dye based assay; format: functional
[9] = system: M14; test: Antiproliferative activity against human M14 cells assessed as cell growth inhibition incubated for 72 hrs by alamar blue dye based assay; format: functional
[10] = system: OVCAR-3; test: Antiproliferative activity against human OVCAR-3 cells assessed as cell growth inhibition incubated for 72 hrs by alamar blue dye based assay; format: functional
[11] = system: HOP-92; test: Antiproliferative activity against human HOP-92 cells assessed as cell growth inhibition incubated for 72 hrs by alamar blue dye based assay; format: functional
[12] = system: SK-MEL-5; test: Antiproliferative activity against human SK-MEL-5 cells assessed as cell growth inhibition incubated for 72 hrs by alamar blue dye based assay; format: functional
[13] = system: K562; test: Antiproliferative activity against human K562 cells assessed as cell growth inhibition incubated for 72 hrs by alamar blue dye based assay; format: functional
[14] = system: UACC-62; test: Antiproliferative activity against human UACC-62 cells assessed as cell growth inhibition incubated for 72 hrs by alamar blue dye based assay; format: functional
[15] = system: KM12; test: Antiproliferative activity against human KM12 cells assessed as cell growth inhibition incubated for 72 hrs by alamar blue dye based assay; format: functional
[16] = system: IGROV-1; test: Antiproliferative activity against human IGROV-1 cells assessed as cell growth inhibition incubated for 72 hrs by alamar blue dye based assay; format: functional
[17] = system: PC-3; test: Antiproliferative activity against human PC-3 cells assessed as cell growth inhibition incubated for 72 hrs by alamar blue dye based assay; format: functional
[18] = target: Histone deacetylase 1 (Homo sapiens, UniProt Q13547); test: Inhibition of HDAC1 (unknown origin) expressed in baculovirus infected in Sf9 cells using RHKKAc as substrate preincubated for 5 to 10 mins followed by substrate addition measured after 2 hrs by fluorescence based assay
Histone deacetylase 1, sequence (Q13547 whole entry): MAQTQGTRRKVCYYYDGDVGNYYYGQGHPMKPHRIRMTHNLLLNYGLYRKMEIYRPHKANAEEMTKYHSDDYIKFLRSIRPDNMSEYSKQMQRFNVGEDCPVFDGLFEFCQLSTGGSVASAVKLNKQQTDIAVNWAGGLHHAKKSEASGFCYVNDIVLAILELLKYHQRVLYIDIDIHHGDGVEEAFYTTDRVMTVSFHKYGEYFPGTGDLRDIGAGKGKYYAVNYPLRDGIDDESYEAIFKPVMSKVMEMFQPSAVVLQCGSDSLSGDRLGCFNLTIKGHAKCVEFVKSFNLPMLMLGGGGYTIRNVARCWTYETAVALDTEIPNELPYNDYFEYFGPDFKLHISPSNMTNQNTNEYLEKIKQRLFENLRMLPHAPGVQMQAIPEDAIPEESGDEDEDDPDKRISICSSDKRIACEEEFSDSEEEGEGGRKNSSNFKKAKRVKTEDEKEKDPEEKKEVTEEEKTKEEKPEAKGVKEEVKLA

[19] = system: SF-295; test: Antiproliferative activity against human SF-295 cells assessed as cell growth inhibition incubated for 72 hrs by alamar blue dye based assay; format: functional
[20] = system: NCI/ADR-RES; test: Antiproliferative activity against human NCI-ADR-RES cells assessed as cell growth inhibition incubated for 72 hrs by alamar blue dye based assay; format: functional
[21] = system: HT-29; test: Antiproliferative activity against human HT-29 cells assessed as cell growth inhibition incubated for 72 hrs by alamar blue dye based assay; format: functional
[22] = system: NCI-H522; test: Antiproliferative activity against human NCI-H522 cells assessed as cell growth inhibition incubated for 72 hrs by alamar blue dye based assay; format: functional
[23] = system: HCC 2998; test: Antiproliferative activity against human HCC 2998 cells assessed as cell growth inhibition incubated for 72 hrs by alamar blue dye based assay; format: functional
[24] = system: NCI-H226; test: Antiproliferative activity against human NCI-H226 cells assessed as cell growth inhibition incubated for 72 hrs by alamar blue dye based assay; format: functional
[25] = system: T47D; test: Antiproliferative activity against human T47D cells assessed as cell growth inhibition incubated for 72 hrs by alamar blue dye based assay; format: functional
[26] = system: SNB-19; test: Antiproliferative activity against human SNB-19 cells assessed as cell growth inhibition incubated for 72 hrs by alamar blue dye based assay; format: functional
[27] = system: MDA-MB-468; test: Antiproliferative activity against human MDA-MB-468 cells assessed as cell growth inhibition incubated for 72 hrs by alamar blue dye based assay; format: functional
[28] = system: SK-MEL-28; test: Antiproliferative activity against human SK-MEL-28 cells assessed as cell growth inhibition incubated for 72 hrs by alamar blue dye based assay; format: functional
[29] = system: EKVX; test: Antiproliferative activity against human EKVX cells assessed as cell growth inhibition incubated for 72 hrs by alamar blue dye based assay; format: functional
[30] = system: SNB-75; test: Antiproliferative activity against human SNB-75 cells assessed as cell growth inhibition incubated for 72 hrs by alamar blue dye based assay; format: functional
[31] = system: CAKI-1; test: Antiproliferative activity against human CAKI-1 cells assessed as cell growth inhibition incubated for 72 hrs by alamar blue dye based assay; format: functional
[32] = system: NCI-H460; test: Antiproliferative activity against human NCI-H460 cells assessed as cell growth inhibition incubated for 72 hrs by alamar blue dye based assay; format: functional
[33] = system: Malme-3M; test: Antiproliferative activity against human Malme-3M cells assessed as cell growth inhibition incubated for 72 hrs by alamar blue dye based assay; format: functional
[34] = system: A549; test: Antiproliferative activity against human A549 cells assessed as cell growth inhibition incubated for 72 hrs by alamar blue dye based assay; format: functional
[35] = system: SK-OV-3; test: Antiproliferative activity against human SK-OV-3 cells assessed as cell growth inhibition incubated for 72 hrs by alamar blue dye based assay; format: functional
[36] = system: MOLT-4; test: Antiproliferative activity against human MOLT-4 cells assessed as cell growth inhibition incubated for 72 hrs by alamar blue dye based assay; format: functional
[37] = system: MDA-MB-231; test: Antiproliferative activity against human MDA-MB-231 cells assessed as cell growth inhibition incubated for 72 hrs by alamar blue dye based assay; format: functional
[38] = system: BT-549; test: Antiproliferative activity against human BT-549 cells assessed as cell growth inhibition incubated for 72 hrs by alamar blue dye based assay; format: functional
[39] = system: DU-145; test: Antiproliferative activity against human DU-145 cells assessed as cell growth inhibition incubated for 72 hrs by alamar blue dye based assay; format: functional
[40] = system: COLO 205; test: Antiproliferative activity against human COLO 205 cells assessed as cell growth inhibition incubated for 72 hrs by alamar blue dye based assay; format: functional
[41] = system: HL-60(TB); test: Antiproliferative activity against human HL-60(TB) cells assessed as cell growth inhibition incubated for 72 hrs by alamar blue dye based assay; format: functional
[42] = system: SN12C; test: Antiproliferative activity against human SN12C cells assessed as cell growth inhibition incubated for 72 hrs by alamar blue dye based assay; format: functional
[43] = system: SR; test: Antiproliferative activity against human SR cells assessed as cell growth inhibition incubated for 72 hrs by alamar blue dye based assay; format: functional
[44] = system: RPMI-8226; test: cells; format: functional, cell-based; details: Homo sapiens, RPMI-8226; time 72 hrs
[45] = system: OVCAR-4; test: Antiproliferative activity against human OVCAR-4 cells assessed as cell growth inhibition incubated for 72 hrs by alamar blue dye based assay; format: functional
[46] = system: OVCAR-8; test: Antiproliferative activity against human OVCAR-8 cells assessed as cell growth inhibition incubated for 72 hrs by alamar blue dye based assay; format: functional

## COc1ccc(CN2[C@@H](C(=O)NCc3ccc(C(=O)NO)cc3)Cc3c([nH]c4ccccc34)[C@@H]2C2CC2)cc1
[1]
  GI50: 2080 nM
[2]
  GI50: 797 nM
[3]
  GI50: 2480 nM
[4]
  GI50: 996 nM
[5]
  GI50: 3980 nM
[6]
  GI50: 2750 nM
[7]
  GI50: 1850 nM
[8]
  GI50: 1870 nM
[9]
  GI50: 4070 nM
[10]
  GI50: 3410 nM
[11]
  GI50: 2620 nM
[12]
  GI50: 2600 nM
[13]
  GI50: 1670 nM
[14]
  GI50: 1550 nM
[15]
  GI50: 3510 nM
[16]
  GI50: 2600 nM
[17]
  GI50: 3120 nM
[18]
  IC50: 171 nM
[19]
  GI50: 2920 nM
[20]
  GI50: 4050 nM
[21]
  GI50: 4840 nM
[22]
  GI50: 965 nM
[23]
  GI50: 2600 nM
[24]
  GI50: 3410 nM
[25]
  GI50: 3820 nM
[26]
  GI50: 2890 nM
[27]
  GI50: 1000 nM
[28]
  GI50: 1980 nM
[29]
  GI50: 3200 nM
[30]
  GI50: 1130 nM
[31]
  GI50: 2400 nM
[32]
  GI50: 3140 nM
[33]
  GI50: 847 nM
[34]
  GI50: 3540 nM
[35]
  GI50: 2870 nM
[36]
  GI50: 1850 nM
[37]
  GI50: 2430 nM
[38]
  GI50: 4990 nM
[39]
  GI50: 4380 nM
[40]
  GI50: 3470 nM
[41]
  GI50: 2730 nM
[42]
  GI50: 3860 nM
[43]
  GI50: > 19800 nM
[44]
  GI50: 2920 nM
[45]
  GI50: 4740 nM
[46]
  GI50: 2560 nM
